Measured values from ChEMBL document CHEMBL4219141, “Identification of an aminothiazole series of RORβ modulators” (Bioorg Med Chem Lett, 2018).
Activity calls are given as the source filed them. No cut-off for these calls is given here.

Experiments:
[1] = Half life in mouse liver microsomes at 1 uM in presence of NADPH by LC-MS/MS analysis; assay type: ADME, microsome
[2] = system: HEK-293T; test: Toxicity in HEK293T cells at 10 uM; assay type: cell-based; details: human
[3] = biological target: T1, Nuclear receptor ROR-gamma (Homo sapiens, UniProt P51449)
T1 sequence (P51449 whole entry): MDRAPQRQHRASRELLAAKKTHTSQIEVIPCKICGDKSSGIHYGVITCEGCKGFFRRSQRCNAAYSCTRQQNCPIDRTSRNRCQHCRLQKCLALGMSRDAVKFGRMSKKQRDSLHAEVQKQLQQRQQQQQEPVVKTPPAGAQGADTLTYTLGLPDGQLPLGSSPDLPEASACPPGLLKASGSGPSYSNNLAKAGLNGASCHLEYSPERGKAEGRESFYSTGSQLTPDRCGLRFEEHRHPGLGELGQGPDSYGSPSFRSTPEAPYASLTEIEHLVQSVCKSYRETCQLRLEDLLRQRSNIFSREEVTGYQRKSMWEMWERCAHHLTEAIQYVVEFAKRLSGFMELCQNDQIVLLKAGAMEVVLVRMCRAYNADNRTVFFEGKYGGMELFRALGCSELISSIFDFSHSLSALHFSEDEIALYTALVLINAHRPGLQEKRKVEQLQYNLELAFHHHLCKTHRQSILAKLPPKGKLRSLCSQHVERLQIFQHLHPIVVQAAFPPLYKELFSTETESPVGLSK

[4] = biological target: T2, Nuclear receptor ROR-alpha (Homo sapiens) (UniProt P35398); test: Inverse agonist activity at GAL4-DNA binding domain-fused human RORalpha ligand binding domain expressed in HEK293T cells incubated for 20 hrs by luciferase reporter gene assay; assay type: cell-based
T2 sequence (whole entry): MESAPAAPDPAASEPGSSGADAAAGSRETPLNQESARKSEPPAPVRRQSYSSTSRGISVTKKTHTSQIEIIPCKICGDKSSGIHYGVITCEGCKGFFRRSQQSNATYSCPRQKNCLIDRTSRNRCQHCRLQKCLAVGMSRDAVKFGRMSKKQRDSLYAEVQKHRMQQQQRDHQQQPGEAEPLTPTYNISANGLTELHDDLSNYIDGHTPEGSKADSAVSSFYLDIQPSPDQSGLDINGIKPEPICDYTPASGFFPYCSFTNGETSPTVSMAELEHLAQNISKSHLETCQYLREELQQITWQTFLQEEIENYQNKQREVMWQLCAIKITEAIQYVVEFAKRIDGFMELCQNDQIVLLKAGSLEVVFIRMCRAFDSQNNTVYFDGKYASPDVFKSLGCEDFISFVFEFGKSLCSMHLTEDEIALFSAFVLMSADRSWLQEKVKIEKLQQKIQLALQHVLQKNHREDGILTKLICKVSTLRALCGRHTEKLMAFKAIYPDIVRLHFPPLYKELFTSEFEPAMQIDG

Row | Compound | t1/2 [1] [min] | Activity [2] | IC50 [3] [µM] | Activity [4]
1 | COc1ccccc1C(=O)c1sc(N)nc1-c1cc(C(F)(F)F)cc(C(F)(F)F)c1 | 5.2 | – | – | –
2 | Nc1nc(-c2cccc(C(F)(F)F)c2)c(C(=O)c2ccccc2Cl)s1 | 2.9 | – | – | –
3 | COc1ccccc1C(=O)c1sc(N)nc1-c1ccc(Cl)c(C(F)(F)F)c1 | – | Non-Toxic | > 40 | inactive
4 | COc1ccccc1C(=O)c1sc(N)nc1-c1cccc(C(F)(F)F)c1 | – | – | > 40 | –
5 | Nc1nc(-c2cc(C(F)(F)F)cc(C(F)(F)F)c2)c(C(=O)c2ccccc2Cl)s1 | 7.4 | – | – | –
6 | Nc1nc(-c2ccc(Cl)c(C(F)(F)F)c2)c(C(=O)c2ccccc2Cl)s1 | – | – | > 40 | –
7 | COc1ccccc1C(=O)c1sc(N)nc1-c1cc(Br)cc(C(F)(F)F)c1 | 2.3 | Non-Toxic | – | inactive
8 | Nc1nc(-c2cccc(C(F)(F)F)c2)c(C(=O)c2ccccc2C(F)(F)F)s1 | – | – | > 40 | –
9 | Nc1nc(-c2cccc(C(F)(F)F)c2)c(C(=O)c2c(F)cccc2C(F)(F)F)s1 | – | – | > 40 | –
10 | Nc1nc(-c2cccc(C(F)(F)F)c2)c(C(=O)c2c(F)cccc2Cl)s1 | 2.7 | – | > 40 | –
11 | Nc1nc(-c2cccc(C(F)(F)F)c2)c(C(=O)c2ccccc2Br)s1 | – | – | > 40 | –
12 | Nc1nc(-c2ccc(Br)c(C(F)(F)F)c2)c(C(=O)c2ccccc2Cl)s1 | 2.5 | – | – | –
13 | Nc1nc(-c2cc(Br)cc(C(F)(F)F)c2)c(C(=O)c2ccccc2Cl)s1 | 5.2 | Non-Toxic | > 40 | inactive
14 | Nc1nc(-c2cc(Cl)cc(C(F)(F)F)c2)c(C(=O)c2ccccc2Cl)s1 | 6.1 | – | – | –
15 | Nc1nc(-c2cccc(Cl)c2)c(C(=O)c2ccccc2Cl)s1 | 1.9 | Non-Toxic | – | inactive
16 | CCS(=O)(=O)c1ccc(CC(=O)Nc2nc(-c3ccccc3Cl)c(C(=O)c3ccccc3Cl)s2)cc1 | 34 | Non-Toxic | – | –
